Literature values in US12465589B2, “Method and composition for treating CNS disorders” (IGC Pharma IP, LLC, priority 2018, dated 2025).

Experiments:
[1] = literature reports
[2] = tested on: acetylcholinesterase (AChE); conditions: THC 50 micromolar
Aβ protein = Aβ protein (Homo sapiens, UniProt P05067); conditions: in vitro
AD patients = conditions: supplementation

Sequence of Aβ protein (P05067 672-713 limits assumed): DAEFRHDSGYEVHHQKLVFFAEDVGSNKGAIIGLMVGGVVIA

CCCCCc1cc(O)c2c(c1)OC(C)(C)[C@@H]1CCC(C)=C[C@@H]21 [THC, Δ9-tetrahydrocannabinol]
side effects of ingestion [1]: acute psychotic reactions, anxiety, impaired neuropsychological performance, impaired memory, executive functioning disorder, mitochondrial dysfunction, neuron apoptosis | AChE-induced amyloid β-peptide (Aβ) aggregation [2]: prevents | inhibition of acetylcholinesterase (AChE) [2]: competitively inhibits

COc1cc(/C=C/C(=O)CC(=O)/C=C/c2ccc(O)c(OC)c2)ccc1O [curcumin]
aggregation of Aβ (Aβ protein): prevent the aggregation of Aβ | binding to Aβ protein (Aβ protein): bind to Aβ protein

COc1ccc2[nH]cc(CCNC(C)=O)c2c1 [melatonin, N-acetyl-5-methoxytryptamine]
circadian rhythmicity (AD patients): improve circadian rhythmicity | memory (AD patients): beneficial effects on memory
